Literature values, collected in patent US20080033027A1, “Drug combination pharmaceutical compositions and methods for using them” (VICUS THERAPEUTICS SPE 1, LLC, priority 2005, published 2008).
Where a name gives a salt, the structure may show the parent alone. Read-outs that look alike come from different tables or passages of the source.

Assays:
[1] = for solubility in ethanol / alcohol: alcohol(s)
[2] = for Elimination, Biliary/fecal (%): share eliminated by the biliary/fecal route; for Elimination, Renal (%): share eliminated by the renal route; for Elimination (% unchanged): value in parentheses
[3] = oral EPA, after entering the blood stream
[4] = tested on: cachectic severely burned children; cachectic metastatic cancer patients
[5] = cachectic metastatic cancer patients
[6] = cachectic severely burned children

Row | Compound | Half-life ([2]; in vivo) [h] | Oral Absorp. (%) ([2]; in vivo) | Elimination, Renal (%) [2] | Time to Peak Effect Single dose [2] [h] | Biotransformation ([2]; in vivo) | Removable by Hemodialysis ([2]; in vivo) | Elimination (% unchanged) [2] | Elimination (route) ([2]; in vivo) | also measured
1 | COCCc1ccc(OCC(O)CNC(C)C)cc1 (racemic) [Metoprolol succinate, (±)1-(isopropylamino)-3-[p-(2-methoxyethyl)phenoxy]-2-propanol succinate (2:1) (salt)] |  |  |  |  |  |  |  |  | solubility in ethanol / alcohol [1]: sparingly soluble; solubility in water [1]: freely soluble
2 | COCCc1ccc(OCC(O)CNC(C)C)cc1 (racemic) [Metoprolol tartrate, (±)-1-(isopropylamino)-3-(p-(2-(methoxyethyl)phenoxy)-2-propanol (2:1) dextrotartrate salt] |  |  |  |  |  |  |  |  | solubility in ethanol / alcohol [1]: freely soluble; solubility in water [1]: very soluble
3 | CCc1cccc2c3c([nH]c12)C(CC)(CC(=O)O)OCC3 (single isomer, unassigned; (+)) [Etodolac, (+) 1,8-diethyl-1,3,4,9-tetrahydropyrano-[3,4-b]indole-1-acetic acid] |  |  |  |  |  |  |  |  | solubility in ethanol / alcohol [1]: soluble; solubility in water [1]: insoluble; GI complications rate (among non-specific Cox inhibitors): lowest; cardiovascular events (compared with specific cox2 inhibitors): without the reported increase
4 | CCCC(=O)Nc1ccc(OCC(O)CNC(C)C)c(C(C)=O)c1 (stereo not shown) [Acebutolol] | 3 to 4 | 70% | 30-40% |  |  |  |  |  | Elimination, Biliary/fecal (%) [2]: 50-60%
5 | CC(C)NCC(O)COc1ccc(CC(N)=O)cc1 (stereo not shown) [Atenolol] |  | 50-60% | 85-100% | 2 to 4 |  |  |  |  | 
6 | CC(C)NCC(O)COc1ccc(CCOCC2CC2)cc1 (stereo not shown) [Betaxolol] | 14 to 22 | 80-89% | > 80% | 3 to 4 | Hepatic | No | 15% |  | 
7 | CC(C)NCC(O)COc1ccc(COCCOC(C)C)cc1 (stereo not shown) [Bisoprolol] | 9 to 12 | 80-90% |  |  | Hepatic | No | 50% | Renal | Elimination, Biliary/fecal (%) [2]: <2% Fecal; Half-life ([2]; stated in the text): 10 to 12 h
8 | CC(C)(C)NCC(O)COc1cccc2c1CCC(=O)N2 (stereo not shown) [Carteolol] | 6 | 85% |  | 1 to 3 | Hepatic |  | (50-70) % | Renal | 
9 | COc1ccccc1OCCNCC(O)COc1cccc2[nH]c3ccccc3c12 (stereo not shown) [Carvedilol] | 7 to 10 | 25-35% | <2% Renal |  | Hepatic | No |  |  | 
10 | CC/C=C\C/C=C\C/C=C\C/C=C\C/C=C\CCCC(=O)O [EPA, eicosapentaenoic acid] |  |  |  |  |  |  |  |  | cleared in the first pass (liver) [3]: ≤ 90%
11 | CC(CCc1ccccc1)NCC(O)c1ccc(O)c(C(N)=O)c1 (stereo not shown) [Labetalol] |  | 100% | 55-60% |  | Hepatic | No | < 5% | Biliary/fecal | Half-life (hr) ([2]; IV): ~5.5 IV hr; Half-life (hr) ([2]; oral): 6-8 oral hr; Time to Peak Effect Single dose ([2]; IV): 0.083 h (IV); Time to Peak Effect Single dose ([2]; oral): 2 to 4 h
12 | COCCc1ccc(OCC(O)CNC(C)C)cc1 (stereo not shown) [Metoprolol] | 3 to 7 |  |  |  |  |  |  |  | 
13 | CC(C)(C)NCC(O)COc1cccc2c1CC(O)C(O)C2 (stereo not shown) [Nadolol] | 20 to 24 | 30% |  | 4 | None | Yes | 70% | Renal | Half-life ([2]; stated in the text): 10 to 24 h; route of elimination ([2]; stated in the text): kidney excreted
14 | C=CCOc1ccccc1OCC(O)CNC(C)C (stereo not shown) [Oxprenolol] | 1.3 to 1.5 | 90% |  |  | Hepatic |  | < 5% | Renal | 
15 | CC(C)(C)NC[C@H](O)COc1ccccc1C1CCCC1 [Penbutolol] | 5 | 100% | 90% | 1.5 to 3 | Hepatic | No | 0% |  | 
16 | CC(C)NCC(O)COc1cccc2[nH]ccc12 (stereo not shown) [Pindolol] | 3 to 4 | 90-100% |  |  |  |  | 40% | Renal | 
17 | CC(C)NCC(O)COc1cccc2ccccc12.Cl (stereo not drawn) [Propranolol, 2-Propanol, 1-[(1-methylethyl)amino]-3-(1-naphthalenyloxy)-, hydrochloride, (+)-] | 3 to 5 |  |  |  |  |  |  |  | stability of the solid ([1]; crystalline solid): stable; solubility in ethanol / alcohol [1]: readily soluble; solubility in water [1]: readily soluble; adverse events ([4]; both previous trials): No adverse events were reported; elevated inflammatory cytokines [4, 5]: reduction; elevated resting energy expenditure [4, 5]: reduction; elevated inflammatory cytokines [4, 6]: reduction; elevated resting energy expenditure [4, 6]: reduction; rate of loss of lean body mass [4, 6]: reduction
18 | CC(C)NCC(O)c1ccc(NS(C)(=O)=O)cc1 (stereo not shown) [Sotalol] | 7 to 18 | >80% |  |  |  |  | 75% | Renal | 
19 | CC(C)(C)NC[C@H](O)COc1nsnc1N1CCOCC1 [Timolol] | 4 | 90% |  | 1 to 2 | Hepatic | No | 20% |  | Elimination (route) ([2]; in vivo, fecal elimination): Fecal; Elimination (route) ([2]; in vivo, renal elimination): Renal
